Laboratory results reported in ChEMBL document CHEMBL4828709, “Discovery of 2,4-pyrimidinediamine derivatives as potent dual inhibitors of ALK and HDAC” (Eur J Med Chem, 2021).
Activity calls are given as the source filed them. The calls are words filed in the database; no cut-off is given here.

How the values were obtained:
[1] = biological target: T1, Protein deacetylase HDAC6 (Homo sapiens, UniProt Q9UBN7)
T1 sequence (Q9UBN7 whole entry): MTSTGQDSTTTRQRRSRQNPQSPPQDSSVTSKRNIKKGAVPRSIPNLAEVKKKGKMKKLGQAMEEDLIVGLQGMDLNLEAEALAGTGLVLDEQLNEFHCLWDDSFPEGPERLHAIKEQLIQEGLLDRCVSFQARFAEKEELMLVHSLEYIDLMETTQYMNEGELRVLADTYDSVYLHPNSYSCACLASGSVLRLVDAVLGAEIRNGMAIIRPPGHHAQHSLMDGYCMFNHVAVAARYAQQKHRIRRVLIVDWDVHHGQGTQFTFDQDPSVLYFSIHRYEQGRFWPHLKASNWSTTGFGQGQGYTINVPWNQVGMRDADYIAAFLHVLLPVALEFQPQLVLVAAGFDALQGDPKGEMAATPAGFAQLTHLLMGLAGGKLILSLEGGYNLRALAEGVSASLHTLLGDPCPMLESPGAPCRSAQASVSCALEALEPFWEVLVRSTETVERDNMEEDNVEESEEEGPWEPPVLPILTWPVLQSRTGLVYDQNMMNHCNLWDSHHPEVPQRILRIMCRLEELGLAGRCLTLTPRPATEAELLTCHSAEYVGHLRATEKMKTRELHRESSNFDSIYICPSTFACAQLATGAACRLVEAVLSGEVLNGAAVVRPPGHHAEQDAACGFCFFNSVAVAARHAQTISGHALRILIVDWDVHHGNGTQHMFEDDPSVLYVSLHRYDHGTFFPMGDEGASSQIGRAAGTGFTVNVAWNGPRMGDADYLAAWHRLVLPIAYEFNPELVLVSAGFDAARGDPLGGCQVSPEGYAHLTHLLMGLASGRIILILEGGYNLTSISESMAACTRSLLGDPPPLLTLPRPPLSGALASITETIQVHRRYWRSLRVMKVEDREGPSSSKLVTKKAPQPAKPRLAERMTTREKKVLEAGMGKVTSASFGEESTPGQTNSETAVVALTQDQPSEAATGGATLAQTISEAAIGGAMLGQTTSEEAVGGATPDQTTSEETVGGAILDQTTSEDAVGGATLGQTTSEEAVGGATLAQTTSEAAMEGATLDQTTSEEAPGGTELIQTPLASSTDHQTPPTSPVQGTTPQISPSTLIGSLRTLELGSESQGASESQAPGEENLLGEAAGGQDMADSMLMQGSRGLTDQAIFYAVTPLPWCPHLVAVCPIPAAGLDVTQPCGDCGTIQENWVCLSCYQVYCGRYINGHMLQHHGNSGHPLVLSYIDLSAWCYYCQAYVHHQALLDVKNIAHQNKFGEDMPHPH
Description: Inhibition of HDAC6 (unknown origin)

[2] = test system: NCI-H2228; test: Potency index, ratio of ceritinib IC50 to test compound IC50 for human NCI-H2228 cells harboring EML4/ALK […] assessed as inhibition of cell proliferation measured after 72 hrs by CCK8 assay; assay type: functional
[3] = test system: SH-SY5Y; test: Inhibition of colony formation in human SH-SY5Y cells at 0.1 to 0.4 uM incubated for 3 days followed by incubation in drug-free medium for 12 days by crystal violet staining based assay; assay type: functional, cell-based; conditions: dose 0.1-0.4 µM, time 3.0 day

IC50 [1]: 4.4 nM
SMILES: CC(C)S(=O)(=O)c1ccccc1Nc1nc(Nc2ccc(NC(=O)CCCCCCC(=O)NO)cc2)ncc1Cl
Ratio IC50 [2]: 3
inhibition [3]: Active
